The results in this text go back to BindingDB's records for doi:10.1016/j.bmcl.2011.11.065 (Nerviano Medical Sciences, 2011).

The test concerns the target 3-phosphoinositide-dependent protein kinase 1 (PDPK1) (Homo sapiens) (UniProt O15530). The experiment in a line: Inhibition of PDK1.

pIC50: −log10 of the molar value.

`CN1CCN(c2ccc(OC(F)(F)F)c(Nc3nccc(-c4cc(C(N)=O)cn4C)n3)c2)CC1` gave a negative-log IC50 (pIC50) of under 5.00.

`CN1CCN(c2ccc(OC(F)(F)F)c(Nc3nccc(-c4cc5c(n4C)CCNC5=O)n3)c2)CC1`: the negative-log IC50 (pIC50) was under 5.00.
